According to patent US20020183518A1, “Modulators of proteins with phosphotyrosine recognition units” (ONTOGEN CORPORATION, priority 1995, published 2002):

Columns and labels:
[1] = target: T1, PTP-1B (Homo sapiens, UniProt P18031); assay: In vitro PTPase inhibition assay (pNPP, colorimetric), PTP-1B; format: biochemical; details: Table 9; read-out: IC50 values against PTP1B
T1 construct: known to encode a 321 amino acid fragment containing the PTP-1B catalytic domain and having PTPase activity; made in house; host or cells: E. coli DH5α, plasmid pGEX-3X-PTP-1B
T1 sequence (P18031 3-277 limits assumed): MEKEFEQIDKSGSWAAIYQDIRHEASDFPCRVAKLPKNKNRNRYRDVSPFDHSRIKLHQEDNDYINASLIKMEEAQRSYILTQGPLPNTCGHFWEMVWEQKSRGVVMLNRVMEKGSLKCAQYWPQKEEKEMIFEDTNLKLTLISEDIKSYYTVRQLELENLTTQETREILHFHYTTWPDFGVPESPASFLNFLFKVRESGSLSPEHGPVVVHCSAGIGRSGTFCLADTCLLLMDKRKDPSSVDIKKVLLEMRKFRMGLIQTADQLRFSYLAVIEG
Experimental: PTP-1B enzymatic activity of samples was assayed in microtiter plates as follows. The protein concentration of the PTP-1B enzyme preparation was determined using the Bio-Rad Protein Assay kit (Bio-Rad, Hercules Calif.). […] Reactions were mixed gently and incubated at 37° C. for 60 minutes. Enzymatic cleavage of phosphate from pNPP (a tyrosine phosphate analog) is marked by a colorimetric change in this substrate. See, e.g., Imbert et al., Biochem J., 297:163-173 (1994); Ghosh and Miller, Biochem. Biophys. Res. […] Zanke et al., Eur. J. […] To determine the enzymatic activity, absorbance readings of the reactions were measured at 405 nm using a Molecular Devices Thermomax Plate Reader (Menlo Park Calif.). […] Purified phosphatase was added to the reaction mixtures to begin the reactions; the reactions were incubated at 37° C. for 60 min. […] (for PTP-1C and PTPα assays), stopped, and colorimetrically analyzed as described above. […] First, absorbance readings from the negative control reactions were treated as a baseline and subtracted from the absorbance readings of the experimental reactions. Then, for each reaction, a percent inhibition was calculated using the following formula: […] For each inhibitor compound tested, an IC50 concentration was calculated from a best-fit computer analysis of the calculated percent inhibition for the various dilutions of the compound. PTP-1B enzymatic activity of samples was assayed in microtiter plates as follows. The protein concentration of the PTP-1B enzyme preparation was determined using the Bio-Rad Protein Assay kit (Bio-Rad, Hercules Calif.). […] Reactions were mixed gently and incubated at 37° C. for 60 minutes. Enzymatic cleavage of phosphate from pNPP (a tyrosine phosphate analog) is marked by a colorimetric change in this substrate. See, e.g., Imbert et al., Biochem J., 297:163-173 (1994); Ghosh and Miller, Biochem. Biophys. Res. […] Zanke et al., Eur. […] To determine the enzymatic activity, absorbance readings of the reactions were measured at 405 nm using a Molecular Devices Thermomax Plate Reader (Menlo Park Calif.). […] Purified phosphatase was added to the reaction mixtures to begin the reactions; the reactions were incubated at 37° C. for 60 min. […] (for PTP-1C and PTPα assays), stopped, and calorimetrically analyzed as described above. […] First, absorbance readings from the negative control reactions were treated as a baseline and subtracted from the absorbance readings of the experimental reactions. Then, for each reaction, a percent inhibition was calculated using the following formula: […] For each inhibitor compound tested, an IC50 concentration was calculated from a best-fit computer analysis of the calculated percent inhibition for the various dilutions of the compound.

[2] = target: T2, CD45 (Homo sapiens, UniProt P08575); assay: In vitro PTPase inhibition assay (pNPP, colorimetric), CD45; format: biochemical; details: Table 9; read-out: IC50 values against CD45
T2 construct: The PCR reaction product (2127 bp) was digested with Sma I (New England Biolabs, Beverly Mass.) to yield a 2110 bp product; made in house; host or cells: E. coli DH5α, plasmid pET24C-CD45
T2 sequence (P08575 599-1306 limits assumed): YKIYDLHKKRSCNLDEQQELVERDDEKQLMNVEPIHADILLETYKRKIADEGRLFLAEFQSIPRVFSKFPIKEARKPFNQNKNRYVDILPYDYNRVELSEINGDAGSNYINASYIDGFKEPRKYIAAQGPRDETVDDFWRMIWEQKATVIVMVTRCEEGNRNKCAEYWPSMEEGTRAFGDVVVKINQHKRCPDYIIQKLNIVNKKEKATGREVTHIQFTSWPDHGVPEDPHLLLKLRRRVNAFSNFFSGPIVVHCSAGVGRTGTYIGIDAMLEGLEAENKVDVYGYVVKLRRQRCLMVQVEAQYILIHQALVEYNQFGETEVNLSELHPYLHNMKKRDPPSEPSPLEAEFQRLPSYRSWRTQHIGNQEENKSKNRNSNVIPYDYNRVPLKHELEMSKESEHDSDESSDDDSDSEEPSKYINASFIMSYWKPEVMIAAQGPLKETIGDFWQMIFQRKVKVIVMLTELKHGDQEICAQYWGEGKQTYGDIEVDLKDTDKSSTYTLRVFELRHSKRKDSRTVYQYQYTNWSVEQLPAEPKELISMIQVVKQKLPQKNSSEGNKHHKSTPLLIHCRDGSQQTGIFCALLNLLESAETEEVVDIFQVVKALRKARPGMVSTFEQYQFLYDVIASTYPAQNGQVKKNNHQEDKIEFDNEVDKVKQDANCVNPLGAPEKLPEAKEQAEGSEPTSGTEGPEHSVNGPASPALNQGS
Experimental: CD45 enzymatic activity of samples was assayed in microtiter plates as follows. […] Louis Mo.), and 80 ul of activity assay buffer (100 mM sodium acetate, pH 6.0, 1 mM EDTA, 0.1% Triton X-100, 15 mM bME). Reactions were mixed gently and incubated at 37° C. for 60 minutes. […] To determine the enzymatic activity, absorbance readings of the reactions were measured at 405 nm using a Molecular Devices Thermomax Plate Reader (Menlo Park Calif.). […] Purified phosphatase was added to the reaction mixtures to begin the reactions; the reactions were incubated at 37° C. for 60 min. […] (for PTP-1C and PTPα assays), stopped, and colorimetrically analyzed as described above. […] First, absorbance readings from the negative control reactions were treated as a baseline and subtracted from the absorbance readings of the experimental reactions. Then, for each reaction, a percent inhibition was calculated using the following formula: […] For each inhibitor compound tested, an IC50 concentration was calculated from a best-fit computer analysis of the calculated percent inhibition for the various dilutions of the compound. CD45 enzymatic activity of samples was assayed in microtiter plates as follows. […] Louis Mo.), and 80 ul of activity assay buffer (100 mM sodium acetate, pH 6.0, 1 mM EDTA, 0. 1% Triton X-100, 15 mM bME). Reactions were mixed gently and incubated at 37° C. for 60 minutes. […] To determine the enzymatic activity, absorbance readings of the reactions were measured at 405 nm using a Molecular Devices Thermomax Plate Reader (Menlo Park Calif.). […] Purified phosphatase was added to the reaction mixtures to begin the reactions; the reactions were incubated at 37° C. for 60 min. […] (for PTP-1C and PTPα assays), stopped, and calorimetrically analyzed as described above. […] First, absorbance readings from the negative control reactions were treated as a baseline and subtracted from the absorbance readings of the experimental reactions. Then, for each reaction, a percent inhibition was calculated using the following formula: […] For each inhibitor compound tested, an IC50 concentration was calculated from a best-fit computer analysis of the calculated percent inhibition for the various dilutions of the compound.

Row | SMILES | IC50 [1] [nM] | IC50 [2] [nM]
1 | O=C(O)/C=C/c1ccc(-c2nc(-c3cc(F)cc(F)c3)[nH]c2-c2ccc(/C=C/C(=O)O)cc2)cc1 [Compound 65] | 1300 | 1400
2 | O=C(O)/C=C/c1ccc(-c2ncn(-c3ccccc3)c2-c2ccc(/C=C/C(=O)O)cc2)cc1 [Compound 99] | 1500 | 7400
3 | O=C(O)/C=C/c1ccc(-c2nc(-c3cccs3)[nH]c2-c2ccc(/C=C/C(=O)O)cc2)cc1 [Compound 70] | 420 | 1900
4 | O=C(O)/C=C/c1ccc(C(=O)C(=O)c2ccc(/C=C/C(=O)O)cc2)cc1 [Compound 9] | 370 | 3900
5 | CCCCn1cnc(-c2ccc(/C=C/C(=O)O)cc2)c1-c1ccc(/C=C/C(=O)O)cc1 [Compound 94] | 700 | 7000
6 | COC(=O)c1ccc2cc(-c3nc(-c4ccc(/C=C/C(=O)O)cc4)c(-c4ccc(/C=C/C(=O)O)cc4)[nH]3)[nH]c2c1 [Compound 64] | 3000 | 6400
7 | O=C(O)/C=C/c1ccc(-c2nc(-c3ccc(F)c(F)c3)[nH]c2-c2ccc(/C=C/C(=O)O)cc2)cc1 [Compound 66] | 1700 | 2500
8 | COc1ccc(-c2nc(-c3ccc(/C=C/C(=O)O)cc3)c(-c3ccc(/C=C/C(=O)O)cc3)[nH]2)c(C)c1C [Compound 86] | 1800 | 7100
9 | O=C(O)/C=C/c1ccc(-c2nc(-c3ccc(OCc4ccccc4)cc3)[nH]c2-c2ccc(/C=C/C(=O)O)cc2)cc1 [Compound 87] | 1000 | 1100
10 | O=C(O)/C=C/c1ccc(-c2nc(-c3ccc4ccc5cccc6ccc3c4c56)[nH]c2-c2ccc(/C=C/C(=O)O)cc2)cc1 [Compound 80] | 10000 | 20000
11 | O=C(O)/C=C/c1ccc(-c2nc(-c3ccccc3F)[nH]c2-c2ccc(/C=C/C(=O)O)cc2)cc1 [Compound 78] | 790 | 1150
12 | O=C(O)/C=C/c1ccc(-c2nc(/C=C/c3ccccc3)[nH]c2-c2ccc(/C=C/C(=O)O)cc2)cc1 [Compound 79] | 4800 | 8200
13 | COc1cccc(-c2nc(-c3ccc(/C=C/C(=O)O)cc3)c(-c3ccc(/C=C/C(=O)O)cc3)[nH]2)c1[N+](=O)[O-] [Compound 59] | 250 | 350
14 | O=C(O)/C=C/c1ccc(-c2nc(-c3ccco3)[nH]c2-c2ccc(/C=C/C(=O)O)cc2)cc1 [Compound 60] | 290 | 1000
15 | O=C(O)/C=C/c1ccc(-c2nc(-c3ccc4ccccc4n3)[nH]c2-c2ccc(/C=C/C(=O)O)cc2)cc1 [Compound 63] | 1700 | 2400
16 | O=C(O)/C=C/c1ccc(-c2nc(-c3cc(F)ccc3F)[nH]c2-c2ccc(/C=C/C(=O)O)cc2)cc1 [Compound 76] | 680 | 930
17 | O=C(O)/C=C/c1ccc(-c2nc(-c3cccc(F)c3F)[nH]c2-c2ccc(/C=C/C(=O)O)cc2)cc1 [Compound 67] | 1000 | 1250
18 | O=C(O)/C=C/c1ccc(-c2nc(-c3ccccc3)[nH]c2-c2ccc(/C=C/C(=O)O)cc2)cc1 [Compound 75] | 680 | 3400
19 | COc1cccc(-c2nc(-c3ccc(/C=C/C(=O)O)cc3)c(-c3ccc(/C=C/C(=O)O)cc3)[nH]2)c1O [Compound 69] | 410 | 1900

More lines, now with the values ahead:

Row | IC50 [1] [nM] | IC50 [2] [nM] | SMILES
20 | 1500 | 1800 | O=C(O)/C=C/c1ccc(-c2nc(-c3ccc4c(c3)OCO4)[nH]c2-c2ccc(/C=C/C(=O)O)cc2)cc1 [Compound 85]
21 | 1200 | 2700 | O=C(O)/C=C/c1ccc(-c2nc(-c3c(F)c(F)c(F)c(F)c3F)[nH]c2-c2ccc(/C=C/C(=O)O)cc2)cc1 [Compound 84]
22 | 1000 | 1300 | O=C(O)/C=C/c1ccc(-c2nc3ccc(C(=O)O)cc3nc2-c2ccc(/C=C/C(=O)O)cc2)cc1 [Compound 155]
23 | 13700 | > 100000 | O=C(O)/C=C/c1ccc(-c2nc(-c3ccc4c(c3)CCC4)[nH]c2-c2ccc(/C=C/C(=O)O)cc2)cc1 [Compound 89]
24 | 1700 | 1300 | COC(=O)c1ccc2nc(-c3ccc(/C=C/C(=O)O)cc3)c(-c3ccc(/C=C/C(=O)O)cc3)nc2c1 [Compound 156]
25 | 2650 | 1910 | O=C(O)/C=C/c1ccc(-c2nc3cc(Cl)c(Cl)cc3nc2-c2ccc(/C=C/C(=O)O)cc2)cc1 [Compound 153]
26 | 1300 | 1500 | COc1ccc(-c2nc(-c3ccc(/C=C/C(=O)O)cc3)c(-c3ccc(/C=C/C(=O)O)cc3)[nH]2)cc1F [Compound 83]
27 | 3400 | 20000 | O=C(O)/C=C/c1ccc(-c2[nH]cnc2C(=O)OCc2ccccc2)cc1 [Compound 134]
28 | 860 | 1120 | CC(=O)Nc1ccc(-c2nc(-c3ccc(/C=C/C(=O)O)cc3)c(-c3ccc(/C=C/C(=O)O)cc3)[nH]2)cc1 [Compound 90]
29 | 5500 | 1500 | O=C(O)/C=C/c1ccc(-c2nc3ccccc3nc2-c2ccc(/C=C/C(=O)O)cc2)cc1 [Compound 157]
30 | 850 | 1200 | O=C(O)/C=C/c1ccc(-c2nc3ccc([N+](=O)[O-])cc3nc2-c2ccc(/C=C/C(=O)O)cc2)cc1 [Compound 152]
